Patent US5840684A, “Glycopeptide antibiotic derivatives” (Eli Lilly and Company, priority 1995, dated 1998)
In brackets after ≈: the same amount, converted by molar mass.

Columns and labels:
[1] = test system: Staphylococcus aureus S13E; format: cell-based
Experimental: (§1) The MIC's were determined using a standard broth micro-dilution assay.

[2] = test system: Staphylococcus aureus SA1199B; format: cell-based
Experimental: as §1

[3] = test system: Entercoccus faecium 180-1; experiment: broth micro-dilution MIC; format: cell-based
Experimental: as §1

Entercoccus faecium 276 = experiment: broth micro-dilution MIC; format: cell-based
Experimental: as §1

[4] = test system: Staphylococcus aureus 446; experiment: broth micro-dilution MIC; format: cell-based
Experimental: as §1

[5] = test system: Staphylococcus aureus 447; experiment: broth micro-dilution MIC; format: cell-based
Experimental: as §1

[6] = test system: Staphylococcus aureus 489; experiment: broth micro-dilution MIC; format: cell-based
Experimental: as §1

[7] = test system: Staphylococcus aureus 491; experiment: broth micro-dilution MIC; format: cell-based
Experimental: as §1

[8] = test system: Staphylococcus aureus SA1199A; experiment: broth micro-dilution MIC; format: cell-based
Experimental: as §1

[9] = test system: Staphylococcus aureus SA1199; experiment: broth micro-dilution MIC; format: cell-based
Experimental: as §1

[10] = test system: Staphylococcus aureus X400; experiment: broth micro-dilution MIC; format: cell-based
Experimental: as §1

[11] = test system: Staphylococcus aureus X778; experiment: broth micro-dilution MIC; format: cell-based
Experimental: as §1

[12] = test system: Streptococcus pyogenes C203; experiment: broth micro-dilution MIC; format: cell-based
Experimental: as §1

Entercoccus faecium 180 = experiment: broth micro-dilution MIC; format: cell-based; settings: Entercoccus faecium 180
Experimental: (§2) The formula I compounds have in vitro and in vivo activity against Gram-positive pathogenic bacteria. The MIC's were determined using a standard broth micro-dilution assay.

Entercoccus faecium 2041 = experiment: broth micro-dilution MIC; format: cell-based; settings: Entercoccus faecium 2041
Experimental: as §2

[13] = test system: Enterococcus gallinarum 245; experiment: broth micro-dilution MIC; format: cell-based; settings: Enterococcus gallinarum 245
Experimental: as §2

Escherichia coli EC14 = experiment: broth micro-dilution MIC; format: cell-based
Experimental: as §2

[14] = test system: Haemophilus influenzae RD; experiment: broth micro-dilution MIC; format: cell-based; settings: Haemophilus influenzae RD
Experimental: as §2

[15] = test system: Staphylococcus epidermidis 270; experiment: broth micro-dilution MIC; format: cell-based
Experimental: as §2

[16] = test system: Staphylococcus haemolyticus 105; experiment: broth micro-dilution MIC; format: cell-based
Experimental: as §2

[17] = test system: Staphylococcus haemolyticus 415; experiment: broth micro-dilution MIC; format: cell-based
Experimental: as §2

[18] = test system: Streptococcus pneumoniae P1; experiment: broth micro-dilution MIC; format: cell-based
Experimental: as §2

[19] = test system: vancomycin-resistant enterococci; experiment: broth micro-dilution, mean geometric MIC; format: cell-based, Enterococcus faecium and Enterococcus faecalis; settings: enterococci, 24-hour incubation
[20] = test system: vancomycin-susceptible enterococci; experiment: broth micro-dilution, mean geometric MIC; format: cell-based, Enterococcus faecium and Enterococcus faecalis; settings: enterococci, 24-hour incubation

Row | SMILES | MIC [1] [mg/L] | MIC [2] [mg/L] | MIC [3] [mg/L] | MIC (Entercoccus faecium 276) [mg/L] | MIC [4] [mg/L] | MIC [5] [mg/L] | MIC [6] [mg/L] | MIC [7] [mg/L] | MIC [8] [mg/L] | MIC [9] [mg/L] | MIC [10] [mg/L] | MIC [11] [mg/L] | MIC [12] [mg/L] | MIC (Entercoccus faecium 180) [mg/L] | MIC (Entercoccus faecium 2041) [mg/L] | MIC [13] [mg/L] | MIC (Escherichia coli EC14) [mg/L] | MIC [14] [mg/L] | MIC [15] [mg/L] | MIC [16] [mg/L] | other results
1 | CC(C)CC(C(=O)NC1C(=O)NC(CC(N)=O)C(=O)NC2C(=O)NC3C(=O)NC(C(=O)NC(C(=O)O)c4cc(O)cc(O)c4-c4cc3ccc4O)C(OC3CC(C)(N)C(O)C(C)O3)c3ccc(c(Cl)c3)Oc3cc2cc(c3OC2OC(CO)C(O)C(O)C2OC2CC(C)(N)C(O)C(C)O2)Oc2ccc(cc2Cl)C1O)N(C)Cc1ccc(O)cc1 (stereo not drawn) [Compound 257] | ≤ 0.06 | ≤ 0.06 | ≤ 0.06 | ≤ 0.06 | ≤ 0.06 | 0.25 (≈ 0.147 µM) | ≤ 0.06 | ≤ 0.06 | ≤ 0.06 | ≤ 0.06 | ≤ 0.06 | ≤ 0.06 | ≤ 0.06 | 4 (≈ 2.35 µM) | ≤ 0.06 | ≤ 0.06 | > 64 | > 64 | 0.25 (≈ 0.147 µM) | 2 (≈ 1.18 µM) | MIC [17]: 8 mg/L (≈ 4.71 µM); MIC [18]: ≤ 0.06 mg/L; mean geometric MIC, Vancomycin Resistant Strains [19]: 64 mg/L; mean geometric MIC, Vancomycin Sensitive Strains [20]: 1 mg/L
2 | CC(C)CC(C(=O)NC1C(=O)NC(CC(N)=O)C(=O)NC2C(=O)NC3C(=O)NC(C(=O)NC(C(=O)O)c4cc(O)cc(O)c4-c4cc3ccc4O)C(OC3CC(C)(N)C(O)C(C)O3)c3ccc(c(Cl)c3)Oc3cc2cc(c3OC2OC(CO)C(O)C(O)C2OC2CC(C)(NCc3cccc4c3OCO4)C(O)C(C)O2)Oc2ccc(cc2Cl)C1O)N(C)Cc1cccc2c1OCO2 (stereo not drawn) [Compound 269] | 1 (≈ 0.537 µM) | 0.5 (≈ 0.269 µM) | 0.125 (≈ 0.0672 µM) | 0.125 (≈ 0.0672 µM) | 2 (≈ 1.07 µM) | 4 (≈ 2.15 µM) | 0.25 (≈ 0.134 µM) | 1 (≈ 0.537 µM) | ≤ 0.06 | 0.25 (≈ 0.134 µM) | 0.5 (≈ 0.269 µM) | 0.25 (≈ 0.134 µM) | ≤ 0.06 | 4 (≈ 2.15 µM) | 0.125 (≈ 0.0672 µM) | 4 (≈ 2.15 µM) | > 64 | > 64 | 8 (≈ 4.3 µM) | 8 (≈ 4.3 µM) | MIC [17]: 4 mg/L (≈ 2.15 µM); MIC [18]: ≤ 0.06 mg/L; mean geometric MIC, Vancomycin Resistant Strains [19]: 38 mg/L; mean geometric MIC, Vancomycin Sensitive Strains [20]: 1.1 mg/L
3 | CC(C)CC(C(=O)NC1C(=O)NC(CC(N)=O)C(=O)NC2C(=O)NC3C(=O)NC(C(=O)NC(C(=O)O)c4cc(O)cc(O)c4-c4cc3ccc4O)C(OC3CC(C)(N)C(O)C(C)O3)c3ccc(c(Cl)c3)Oc3cc2cc(c3OC2OC(CO)C(O)C(O)C2OC2CC(C)(NCc3c4c(cc5ccccc35)CCCC4)C(O)C(C)O2)Oc2ccc(cc2Cl)C1O)N(C)Cc1c2c(cc3ccccc13)CCCC2 (stereo not drawn) [Compound 262] | 1 (≈ 0.505 µM) | 0.5 (≈ 0.252 µM) | ≤ 0.06 | 2 (≈ 1.01 µM) | 2 (≈ 1.01 µM) | 1 (≈ 0.505 µM) | 1 (≈ 0.505 µM) | 1 (≈ 0.505 µM) | ≤ 0.06 | 0.5 (≈ 0.252 µM) | 2 (≈ 1.01 µM) | 1 (≈ 0.505 µM) | ≤ 0.06 | 1 (≈ 0.505 µM) | 0.5 (≈ 0.252 µM) | 2 (≈ 1.01 µM) | > 64 | > 64 | 1 (≈ 0.505 µM) | 4 (≈ 2.02 µM) | MIC [17]: 2 mg/L (≈ 1.01 µM); MIC [18]: ≤ 0.06 mg/L; mean geometric MIC, Vancomycin Resistant Strains [19]: 5.7 mg/L; mean geometric MIC, Vancomycin Sensitive Strains [20]: 0.17 mg/L
4 | CC(C)CC(C(=O)NC1C(=O)NC(CC(N)=O)C(=O)NC2C(=O)NC3C(=O)NC(C(=O)NC(C(=O)O)c4cc(O)cc(O)c4-c4cc3ccc4O)C(OC3CC(C)(N)C(O)C(C)O3)c3ccc(c(Cl)c3)Oc3cc2cc(c3OC2OC(CO)C(O)C(O)C2OC2CC(C)(NCc3ccc4c(c3)CCCC4)C(O)C(C)O2)Oc2ccc(cc2Cl)C1O)N(C)Cc1ccc2c(c1)CCCC2 (stereo not drawn) [Compound 258] | 2 (≈ 1.06 µM) | 0.25 (≈ 0.133 µM) | 4 (≈ 2.13 µM) | 1 (≈ 0.532 µM) | 1 (≈ 0.532 µM) | 1 (≈ 0.532 µM) | 1 (≈ 0.532 µM) | 1 (≈ 0.532 µM) | 2 (≈ 1.06 µM) | 2 (≈ 1.06 µM) | 2 (≈ 1.06 µM) | 1 (≈ 0.532 µM) | ≤ 0.06 | 1 (≈ 0.532 µM) | 0.5 (≈ 0.266 µM) | 1 (≈ 0.532 µM) | > 64 | > 64 | 2 (≈ 1.06 µM) | 1 (≈ 0.532 µM) | MIC [17]: 2 mg/L (≈ 1.06 µM); MIC [18]: ≤ 0.06 mg/L; mean geometric MIC, Vancomycin Resistant Strains [19]: 8 mg/L; mean geometric MIC, Vancomycin Sensitive Strains [20]: 1 mg/L
5 | CC(C)CC(C(=O)NC1C(=O)NC(CC(N)=O)C(=O)NC2C(=O)NC3C(=O)NC(C(=O)NC(C(=O)O)c4cc(O)cc(O)c4-c4cc3ccc4O)C(OC3CC(C)(NCc4cccc5c([N+](=O)[O-])cccc45)C(O)C(C)O3)c3ccc(c(Cl)c3)Oc3cc2cc(c3OC2OC(CO)C(O)C(O)C2OC2CC(C)(N)C(O)C(C)O2)Oc2ccc(cc2Cl)C1O)N(C)Cc1cccc2c([N+](=O)[O-])cccc12 (stereo not drawn) [Compound 286] | 4 (≈ 2.04 µM) | 4 (≈ 2.04 µM) | 0.25 (≈ 0.127 µM) | 1 (≈ 0.509 µM) | 1 (≈ 0.509 µM) | 8 (≈ 4.08 µM) | 2 (≈ 1.02 µM) | 2 (≈ 1.02 µM) | ≤ 0.06 | 2 (≈ 1.02 µM) | 2 (≈ 1.02 µM) | 4 (≈ 2.04 µM) | ≤ 0.06 | 8 (≈ 4.08 µM) | 1 (≈ 0.509 µM) | 4 (≈ 2.04 µM) | > 64 | > 64 | 4 (≈ 2.04 µM) | 8 (≈ 4.08 µM) | MIC [17]: 4 mg/L (≈ 2.04 µM); MIC [18]: ≤ 0.06 mg/L; mean geometric MIC, Vancomycin Resistant Strains [19]: 19 mg/L; mean geometric MIC, Vancomycin Sensitive Strains [20]: 1.1 mg/L
6 | CNC(CC(C)C)C(=O)NC1C(=O)NC(CC(N)=O)C(=O)NC2C(=O)NC3C(=O)NC(C(=O)NC(C(=O)O)c4cc(O)cc(O)c4-c4cc3ccc4O)C(OC3CC(C)(NCc4cnc5ccccc5c4)C(O)C(C)O3)c3ccc(c(Cl)c3)Oc3cc2cc(c3OC2OC(CO)C(O)C(O)C2OC2CC(C)(NCc3cnc4ccccc4c3)C(O)C(C)O2)Oc2ccc(cc2Cl)C1O (stereo not drawn) [Compound 275] | 0.125 (≈ 0.0667 µM) | 0.125 (≈ 0.0667 µM) | ≤ 0.06 | ≤ 0.06 | 0.25 (≈ 0.133 µM) | 1 (≈ 0.533 µM) | ≤ 0.06 | 1 (≈ 0.533 µM) | ≤ 0.06 | ≤ 0.06 | 0.25 (≈ 0.133 µM) | ≤ 0.06 | ≤ 0.06 | 1 (≈ 0.533 µM) | ≤ 0.06 | 4 (≈ 2.13 µM) | > 64 | > 64 | 1 (≈ 0.533 µM) | 1 (≈ 0.533 µM) | MIC [17]: 4 mg/L (≈ 2.13 µM); MIC [18]: ≤ 0.06 mg/L; mean geometric MIC, Vancomycin Resistant Strains [19]: 16 mg/L; mean geometric MIC, Vancomycin Sensitive Strains [20]: 0.33 mg/L
7 | CNC(CC(C)C)C(=O)NC1C(=O)NC(CC(N)=O)C(=O)NC2C(=O)NC3C(=O)NC(C(=O)NC(C(=O)O)c4cc(O)cc(O)c4-c4cc3ccc4O)C(OC3CC(C)(NCc4ccc(C(F)(F)F)cc4)C(O)C(C)O3)c3ccc(c(Cl)c3)Oc3cc2cc(c3OC2OC(CO)C(O)C(O)C2OC2CC(C)(NCc3ccc(C(F)(F)F)cc3)C(O)C(C)O2)Oc2ccc(cc2Cl)C1O (stereo not drawn) [Compound 272] | 0.125 (≈ 0.0655 µM) | ≤ 0.06 | ≤ 0.06 | 0.125 (≈ 0.0655 µM) | 0.25 (≈ 0.131 µM) | 0.25 (≈ 0.131 µM) | 0.125 (≈ 0.0655 µM) | 0.25 (≈ 0.131 µM) | ≤ 0.06 | 0.25 (≈ 0.131 µM) | 0.125 (≈ 0.0655 µM) | 0.125 (≈ 0.0655 µM) | ≤ 0.06 | 0.5 (≈ 0.262 µM) | 0.125 (≈ 0.0655 µM) | 0.5 (≈ 0.262 µM) | > 64 | > 64 | ≤ 0.06 | 0.125 (≈ 0.0655 µM) | MIC [17]: 0.5 mg/L (≈ 0.262 µM); MIC [18]: ≤ 0.06 mg/L; mean geometric MIC, Vancomycin Resistant Strains [19]: 4.75 mg/L; mean geometric MIC, Vancomycin Sensitive Strains [20]: 0.072 mg/L
